Measurements as given in EP3572411A1, “THIAZOLE DERIVATIVES AS METALLO-BETA-LACTAMASE INHIBITORS” (Antabio SAS, priority 2018, dated 2019).
Like-named read-outs stand apart in the source and are kept apart here.

Legend:
[1] = tested on: NTBC018 (C. freundii strain expressing VIM-2); assay: Antimicrobial susceptibility testing (broth micro-dilution, Meropenem potentiation); assay type: cell-based; details: MIC of Meropenem with compound at constant 8 µg/mL; CAMHB, 18-20 hours, 37°C
Procedure: (§1) Antimicrobial susceptibility testing: The operation is carried out using the 'broth micro-dilution method' according to the protocols M07-A8 established by the Clinical Laboratory Standards Institute (CLSI). Serial dilutions of the β-lactam antibiotic (Meropenem) are prepared in 96-well plates in cation-adjusted Mueller-Hinton broth (CAMHB); the concentration range is defined from 0.03 mg/L to 512 mg/L. The compounds are added at a constant concentration of 8 µg/mL. A bacterial inoculum of each strain (clinical isolates) is adjusted to a 0.5 McFarland turbidity standard in physiologic serum (0.9 % NaCl), then diluted 1:100 in CAMHB and added to each well to give a final bacterial cell number of 5x10^5 CFU/well. After incubation for 18-20 hours in a heating chamber at 37°C, the growth inhibition is evaluated by the absence of any bacterial development.
(§2) The compounds of Table 2 are added at a constant concentration of 8 µg/mL. The clinical strains used in these potentiation experiments are NTBC020 (E. coli strain expressing NDM-1, TEM-1 and CTX-M-15); NTBC035-2 (K. pneumoniae strain expressing NDM-1, CMY-4 and SHV-11); NTBC104-1 (K. pneumoniae strain expressing NDM-1 and SHV-11); NTBC123 (K. pneumoniae strain expressing NDM-1); NTBC018 (C. freundii strain expressing VIM-2); NTBC024 (K. pneumoniae strain expressing VIM-19, TEM-1 and CTX-M-3); NTBC042 (E. coli strain expressing VIM-1, TEM-1 , CTX-M-15, SHV-12); NTBC055 (E. Coli strain expressing VIM-1); NTBC062 (K. pneumoniae strain expressing IMP-1 and TEM-1) and NTBC039 (K. oxytoca strain expressing IMP-28). • For NDM-1 the Ki values of < 0.05 µM are designated (A); Ki values of 0.05 - 0.2 µM are designated (B); Ki values of 0.2 - 0.4 µM are designated (C). • For VIM-1 the Ki values of < 0.2 µM are designated (A); Ki values of 0.2 - 0.5 µM are designated (B); Ki values of 0.5 - 0.8 µM are designated (C). • For VIM-2 the Ki values of < 0.02 µM are designated (A); Ki values of 0.02 - 0.05 µM are designated (B); Ki values of 0.05 - 0.2 µM are designated (C). • For IMP-1 the Ki values of < 0.5 µM are designated (A); Ki values of 0.5 - 1 µM are designated (B); Ki values of 1 - 8 µM are designated (C). • MIC values of < 1 µg/mL are designated (A); MIC values of 1 - 2 µg/mL are designated (B); • MIC values of 2 - 128 µg/mL are designated (C). Table 1. Ki results

[2] = tested on: NTBC104-1 (K. pneumoniae strain expressing NDM-1 and SHV-11); assay: as above; assay type: cell-based; details: MIC of Meropenem with compound at constant 8 µg/mL; CAMHB, 18-20 hours, 37°C
Procedure: as §1, §2

[3] = tested on: NTBC035-2 (K. pneumoniae strain expressing NDM-1, CMY-4 and SHV-11); assay: as above; assay type: cell-based; details: MIC of Meropenem with compound at constant 8 µg/mL; CAMHB, 18-20 hours, 37°C
Procedure: as §1, §2

[4] = tested on: NTBC024 (K. pneumoniae strain expressing VIM-19, TEM-1 and CTX-M-3); assay: as above; assay type: cell-based; details: MIC of Meropenem with compound at constant 8 µg/mL; CAMHB, 18-20 hours, 37°C
Procedure: as §1, §2

[5] = tested on: NTBC020 (E. coli strain expressing NDM-1, TEM-1 and CTX-M-15); assay: as above; assay type: cell-based; details: MIC of Meropenem with compound at constant 8 µg/mL; CAMHB, 18-20 hours, 37°C
Procedure: as §1, §2

[6] = tested on: NTBC123 (K. pneumoniae strain expressing NDM-1); assay: as above; assay type: cell-based; details: MIC of Meropenem with compound at constant 8 µg/mL; CAMHB, 18-20 hours, 37°C
Procedure: as §1, §2

[7] = tested on: NTBC042 (E. coli strain expressing VIM-1, TEM-1 , CTX-M-15, SHV-12); assay: as above; assay type: cell-based; details: MIC of Meropenem with compound at constant 8 µg/mL; CAMHB, 18-20 hours, 37°C
Procedure: as §1, §2

[8] = tested on: NTBC039 (K. oxytoca strain expressing IMP-28); assay: as above; assay type: cell-based; details: MIC of Meropenem with compound at constant 8 µg/mL; CAMHB, 18-20 hours, 37°C
Procedure: as §1, §2

[9] = tested on: NTBC062 (K. pneumoniae strain expressing IMP-1 and TEM-1); assay: as above; assay type: cell-based; details: MIC of Meropenem with compound at constant 8 µg/mL; CAMHB, 18-20 hours, 37°C
Procedure: as §1, §2

[10] = tested on: NTBC055 (E. Coli strain expressing VIM-1); assay: as above; assay type: cell-based; details: MIC of Meropenem with compound at constant 8 µg/mL; CAMHB, 18-20 hours, 37°C
Procedure: as §1, §2

VIM-2 = target: T1, VIM-2 (Escherichia coli, UniProt Q5U7L7); assay: In vitro enzyme inhibition assay (imipenem hydrolysis, UV 299 nm); assay type: biochemical
T1 construct: VIM-1; VIM-2
Procedure: (§3) In vitro enzyme inhibition assays: Enzyme inhibition assays are performed using purified MBL enzymes (NDM-1; VIM-1; VIM-2; IMP-1) in 10mM HEPES buffer pH 7.5 in 96-well microtiter plates. Imipenem (300µM) is used as substrates and its hydrolysis is followed at UV 299 nm during 10mn every 30 seconds using a Perkin Elmer Envision UV fluorescence plate reader. Hydrolysis rate data in presence of a range of inhibitors are analysed using Dotmatics database software and calculated IC50 values are converted to Ki values using the Cheng-Prusoff equation. Ki = IC50 / (1+([S]/Km) and where the Km values for […] are 70 µM, 1.5 µM, 9 µM and 25 µM respectively. Compound dilution is performed in DMSO. Mean Ki values from multiple experiments are presented. Results are shown in Table 1.

VIM-1 = target: T2, VIM-1 (Pseudomonas aeruginosa, UniProt A0A0F7KYQ8); assay: as above; assay type: biochemical
T2 construct: VIM-1; VIM-2; IMP-1)
Procedure: as §3

NDM-1 = target: T3, NDM-1 (Klebsiella pneumoniae, UniProt C7C422); assay: as above; assay type: biochemical
T3 construct: VIM-1; VIM-2
Procedure: as §3

IMP-1 = target: T4, IMP-1 (Serratia marcescens, UniProt P52699); assay: as above; assay type: biochemical
T4 construct: VIM-1; VIM-2
Procedure: as §3

[11] = purified enzyme, 10mM HEPES pH 7.5, Imipenem 300µM; mean Ki from IC50 by Cheng-Prusoff; read-out: Ki (µM) VIM-2
[12] = purified enzyme, 10mM HEPES pH 7.5, Imipenem 300µM; mean Ki from IC50 by Cheng-Prusoff; read-out: Ki (µM) VIM-1
[13] = purified enzyme, 10mM HEPES pH 7.5, Imipenem 300µM; mean Ki from IC50 by Cheng-Prusoff; read-out: Ki (µM) NDM-1
[14] = purified enzyme, 10mM HEPES pH 7.5, Imipenem 300µM; mean Ki from IC50 by Cheng-Prusoff; read-out: Ki (µM) IMP-1

T3 sequence (C7C422 29-270, looked up): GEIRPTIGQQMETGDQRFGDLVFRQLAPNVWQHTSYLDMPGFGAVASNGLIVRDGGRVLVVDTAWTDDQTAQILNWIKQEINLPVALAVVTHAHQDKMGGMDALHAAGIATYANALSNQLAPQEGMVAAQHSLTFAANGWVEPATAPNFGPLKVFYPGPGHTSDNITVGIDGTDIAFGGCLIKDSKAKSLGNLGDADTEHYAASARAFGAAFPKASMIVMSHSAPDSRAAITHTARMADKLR
T4 sequence (P52699 19-246, looked up, species assumed): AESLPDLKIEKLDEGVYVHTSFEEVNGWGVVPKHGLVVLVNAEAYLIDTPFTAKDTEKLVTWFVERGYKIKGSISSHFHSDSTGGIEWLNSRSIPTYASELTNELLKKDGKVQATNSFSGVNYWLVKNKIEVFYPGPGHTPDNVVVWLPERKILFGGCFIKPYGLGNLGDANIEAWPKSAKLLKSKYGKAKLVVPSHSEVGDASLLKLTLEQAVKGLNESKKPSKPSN

In the case of “3-[({4-[(4-carboxy-1,3-thiazol-5-yl)sulfamoyl]-2-fluorophenyl}carbamoyl)methyl]-1-[2-(trimethylammonio)ethyl]imidazol-1-ium [Example 21]”, the “MIC Strain NTBC018” value [1] is reported as “(B) (MIC values of 1 - 2 µg/mL are designated (B))”, the “MIC Strain NTBC104-1” value [2] is reported as “(B) (MIC values of 1 - 2 µg/mL are designated (B))” and the “MIC Strain NTBC035-2” value [3] is reported as “(C) (MIC values of 2 - 128 µg/mL are designated (C))”. For the same molecule, the “MIC Strain NTBC024” value [4] was “(C) (MIC values of 2 - 128 µg/mL are designated (C))”, the “MIC Strain NTBC020” value [5] was “(C) (MIC values of 2 - 128 µg/mL are designated (C))” and the “MIC Strain NTBC123” value [6] was “(C) (MIC values of 2 - 128 µg/mL are designated (C))”. For the same molecule, the “MIC Strain NTBC042” value [7] was “(B) (MIC values of 1 - 2 µg/mL are designated (B))”, the “MIC Strain NTBC039” value [8] was “(B) (MIC values of 1 - 2 µg/mL are designated (B))” and the “MIC Strain NTBC062” value [9] was “(B) (MIC values of 1 - 2 µg/mL are designated (B))”. For the same molecule, the “MIC Strain NTBC055” value [10] was “(B) (MIC values of 1 - 2 µg/mL are designated (B))”, the Ki (VIM-2; [11]) was under 0.02 µM and the Ki (VIM-1; [12]) was under 0.2 µM. For the same molecule, the Ki (NDM-1; [13]) was under 0.05 µM and the Ki (IMP-1; [14]) was 1 to 8 µM.

With “3-(3-carbamimidamidopropyl)-1-[({4-[(4-carboxy-1,3-thiazol-5-yl)sulfamoyl]-2-fluorophenyl}carbamoyl)methyl]-1H-imidazol-3-ium [Example 17]” the “MIC Strain NTBC018” value [1] was “(A) (MIC values of < 1 µg/mL are designated (A))”, the “MIC Strain NTBC104-1” value [2] was “(C) (MIC values of 2 - 128 µg/mL are designated (C))” and the “MIC Strain NTBC035-2” value [3] was “(B) (MIC values of 1 - 2 µg/mL are designated (B))”. For the same molecule, the “MIC Strain NTBC024” value [4] was “(B) (MIC values of 1 - 2 µg/mL are designated (B))”, the “MIC Strain NTBC020” value [5] was “(C) (MIC values of 2 - 128 µg/mL are designated (C))” and the “MIC Strain NTBC123” value [6] was “(C) (MIC values of 2 - 128 µg/mL are designated (C))”. For the same molecule, the “MIC Strain NTBC042” value [7] was “d(B) (MIC values of 1 - 2 µg/mL are designated (B))”, the “MIC Strain NTBC039” value [8] was “(C) (MIC values of 2 - 128 µg/mL are designated (C))” and the “MIC Strain NTBC062” value [9] was “(B) (MIC values of 1 - 2 µg/mL are designated (B))”. For the same molecule, the “MIC Strain NTBC055” value [10] was “(B) (MIC values of 1 - 2 µg/mL are designated (B))”, the Ki (VIM-2; [11]) was under 0.02 µM and the Ki (VIM-1; [12]) was under 0.2 µM. The Ki (NDM-1; [13]) was under 0.05 µM and the Ki (IMP-1; [14]) was 1 to 8 µM.

Work on CN(C)CC[n+]1ccn(CC(=O)Nc2ccc(S(=O)(=O)Nc3scnc3C(=O)[O-])cc2F)c1 [Example 20, 3-[({4-[(4-carboxy-1,3-thiazol-5-yl)sulfamoyl]-2-fluorophenyl}carbamoyl)methyl]-1-[2-(dimethylamino)ethyl]imidazol-1-ium] yielded a Ki (VIM-2; read-out: Ki (µM) VIM-2; purified enzyme, 10mM HEPES pH 7.5, Imipenem 300µM; mean Ki from IC50 by Cheng-Prusoff) of 0.05 to 0.2 µM, a Ki (VIM-1; read-out: Ki (µM) VIM-1; purified enzyme, 10mM HEPES pH 7.5, Imipenem 300µM; mean Ki from IC50 by Cheng-Prusoff) of under 0.2 µM and a Ki (NDM-1; read-out: Ki (µM) NDM-1; purified enzyme, 10mM HEPES pH 7.5, Imipenem 300µM; mean Ki from IC50 by Cheng-Prusoff) of under 0.05 µM. The Ki (IMP-1; read-out: Ki (µM) IMP-1; purified enzyme, 10mM HEPES pH 7.5, Imipenem 300µM; mean Ki from IC50 by Cheng-Prusoff) was 1 to 8 µM.
